Results taken from patent US12172989B2, “Histone acetyltransferase (HAT) inhibitor and use thereof” (SHANGHAI INSTITUTE OF MATERIA MEDICA, CHINESE ACADEMY OF …, priority 2018, dated 2024).

Tests used:
[1] = tested on: Human castration resistant prostate cancer cell line LNCaP clone FGC; assay: Cell growth inhibition experiment (CellTiter-Glo), LNCaP clone FGC; assay type: cell-based; details: Homo sapiens, 120 h, LNCaP clone FGC cells treated with the compound for 5 days
Protocol: (§1) Human castration resistant prostate cancer cell line 22Rv1 and LNCaP clone FGC (22Rv1 cell line was from ATCC, CRL-2505, LNCaP clone FGC cell line was purchased from Cell Bank of the Chinese Academy of Sciences) were cultured with RPMI 1640 medium (Gibco, available from Life Technologies Corporation, 22400-089) containing 10% fetal bovine serum (Gibco, available from Life Technologies, 10099-141) and 1% antibiotics (penicillin and streptomycin, available from Life Technologies Corporation, 10378016) in a CO2 cell incubator (37° C., 5% CO2). In the cell growth inhibition experiment, 22Rv1 and LNCaP clone FGC cells in exponential growth phase were seeded on a 96-well plate (purchased from Corning Company, 3599) with a volume of 150 μL/well and a cell density of 1,500 cells/well. After seeded, the plate was placed in a CO2 incubator to incubate overnight to allow the cells to adhere. On the next day, 50 μL of a compound at different concentrations diluted in 3-fold gradient or DMSO were added in a 96-well plate containing the cells. The final concentration of the compound ranges from 0.3 to 10000 nM, and the final concentration of DMSO is 0.05% as control group. The cells were treated by the compound for 5 days. Cell viability was measured using CellTiter-Glo reagent (purchased from Promega, G7572): the cell treated with the compound for 5 days was added with CellTiter-Glo reagent at 40 μL/well, incubated at room temperature for 10 min, transferred to a white 96-well plate (OptiPlate-96, purchased from PerkinElmer, 605299) by 70 μL. Subsequently, the luminescence signal was detected using a multifunctional microplate reader EnVision (purchased from PerkinElmer) at a wavelength of 400-700 nm. The data was analyzed by using GraphPad Prism 5.0 software to obtain IC50.

[2] = tested on: human mantle cell lymphoma (MCL) cell line MAVER-1; assay: Cell growth inhibition experiment (CellTiter-Glo), MAVER-1; assay type: cell-based; details: Homo sapiens, Maver1, 120 h, MAVER-1 cells treated with the compound for 5 days
Protocol: The human mantle cell lymphoma (MCL) cell line MAVER-1 (from ATCC, CRL-3008) was cultured with RPMI 1640 medium (Gibco, available from Life Technologies Corporation, 22400-089) containing […] (Gibco, available from Life Technologies, 10099-141) and 1% antibiotics (penicillin and streptomycin, available from Life Technologies Corporation, 10378016) in a CO2 cell incubator (37° C., 5% CO2). In the cell growth inhibition experiment, MAVER-1 cells in exponential growth phase were seeded on a 96-well plate (purchased from Corning Company, 3599) in a volume of 100 μL/well and a cell density of 1*10E5 cells/well. After seeded, the plate was placed in a CO2 incubator to culture for 1 h. 100 μL of a compound at different concentrations diluted in 3-fold gradient or DMSO were added in a 96-well plate containing the cells. The final concentration of the compound ranges from 0.3 to 10000 nM, and the final concentration of DMSO is 0.05% as control group. The cells were treated with the compound for 5 days. Cell viability was measured using CellTiter-Glo reagent (purchased from Promega, G7572): the cells treated with the compound for 5 days was added with CellTiter-Glo reagent at 20 μL/well, incubated at room temperature for 10 min, transferred to a white 96-well plate (OptiPlate-96, purchased from PerkinElmer, 605299) by 80 μL. Subsequently, the luminescence signal was detected by using a multifunctional microplate reader EnVision (purchased from PerkinElmer) at a wavelength of 400-700 nm. The data was analyzed by using GraphPad Prism 5.0 software to obtain IC50.

[3] = tested on: Human castration resistant prostate cancer cell line 22Rv1; assay: Cell growth inhibition experiment (CellTiter-Glo), 22Rv1; assay type: cell-based; details: Homo sapiens, 120 h, 22Rv1 cells treated with the compound for 5 days
Protocol: as §1

[4] = biological target: T1, histone acetyltransferase p300 (Homo sapiens, UniProt Q09472); assay: Histone acetyltransferase (p300) activity assay (radioisotope, [3H]-Ac-CoA); assay type: biochemical; details: p300 0.05 nM; histone peptide 600 nM, [3H]-Ac-CoA 250 nM; 60 min at room temperature; read-out: Inhibition rate IC50
T1 construct: purchased BPS Corporation 50071
T1 sequence (Q09472 1284-1673 limits assumed): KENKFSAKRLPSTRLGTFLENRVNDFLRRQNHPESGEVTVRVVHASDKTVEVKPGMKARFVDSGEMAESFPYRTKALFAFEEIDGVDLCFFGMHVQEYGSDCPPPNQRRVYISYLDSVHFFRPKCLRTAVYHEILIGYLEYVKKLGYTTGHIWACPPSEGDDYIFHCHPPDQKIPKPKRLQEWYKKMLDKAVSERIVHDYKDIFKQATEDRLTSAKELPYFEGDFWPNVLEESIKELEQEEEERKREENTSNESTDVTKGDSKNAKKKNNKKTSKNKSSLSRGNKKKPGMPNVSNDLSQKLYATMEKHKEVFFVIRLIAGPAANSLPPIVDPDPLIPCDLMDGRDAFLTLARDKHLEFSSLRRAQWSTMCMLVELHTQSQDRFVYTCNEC
In short: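 p300 (0.05 nM final) was preincubated 15 min with compound (0.25–5000 nM final), then reacted 60 min at room temperature with histone peptide (600 nM) and [3H]-Ac-CoA (250 nM). The reaction was stopped with cold Ac-CoA, and peptide-bound radioactivity was captured on Flashplate and counted to derive IC50.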

SMILES	IC50 [1]	IC50 [2]	IC50 [3]	IC50 [4]
CNC(=O)Nc1ccc2c(c1)CC[C@]21OC(=O)N(CC(=O)N2Cc3ccccc3CC[C@H]2C2CC2)C1=O [SYY-B018-1]	73 nM	49 nM	88 nM	3.3 nM
CCC[C@@H]1CCc2ccccc2CN1C(=O)CN1C(=O)O[C@]2(CCc3cc(NC(=O)NC)ccc32)C1=O [SYY-B023-1]	65 nM	23 nM	50 nM	4 nM
CNC(=O)Nc1ccc2c(c1)CC[C@@]21OC(=O)N(CC(=O)N2Cc3ccc(F)cc3CC[C@@H]2C2CC2)C1=O [SYY-B026-2]	132 nM	254 nM	358 nM	18 nM
CNC(=O)Nc1ccc2c(c1)CC[C@]21OC(=O)N(CC(=O)N2Cc3cc(F)ccc3OC[C@H]2C2CC2)C1=O [SYY-B029-1]	82 nM	66 nM	146 nM	4.1 nM
CNC(=O)Nc1ccc2c(c1)CC[C@@]21OC(=O)N(CC(=O)N2Cc3ccccc3CC[C@H]2C(C)C)C1=O [SYY-B019-2]	9 nM	17 nM	5 nM	2 nM
CCC[C@@H]1CCc2ccccc2CN1C(=O)CN1C(=O)O[C@@]2(CCc3cc(NC(=O)NC)ccc32)C1=O [SYY-B023-2]	4 nM	12 nM	3 nM	2 nM
CNC(=O)Nc1ccc2c(c1)CC[C@@]21OC(=O)N(CC(=O)N2Cc3ccc(F)cc3CC[C@H]2C)C1=O [SYY-B021-2]	13 nM	22 nM	24 nM	3 nM
CNC(=O)Nc1ccc2c(c1)CC[C@]21OC(=O)N(CC(=O)N2Cc3ccc(F)cc3CC[C@H]2C)C1=O [SYY-B021-1]	63 nM	32 nM	107 nM	3 nM
CNC(=O)Nc1ccc2c(c1)CC[C@@]21OC(=O)N(CC(=O)N2Cc3ccccc3CC[C@H]2C(F)(F)F)C1=O [SYY-B027-2]	14 nM	13 nM	23 nM	3.1 nM
